From patent US20220137027A1, “METHOD FOR EVALUATING MOLECULAR CHANGES RELATED TO A MOLECULE EFFECT IN A BIOLOGICAL SAMPLE” (IMABIOTECH, priority 2019, published 2022) come the findings set out here.

Holding throughout (assay type): in vivo, BALB/c mice
The nature of data set [1]: Epacadostat absolute quantification in CT26 tumor sections by QMSI (MALDI MSI). The protocol: (§1) Colon carcinoma CT26 cell line was subcutaneously grafted into BALB/c mice (Charles River Laboratories, France). […] Tumors were sampled and snap frozen in liquid nitrogen for 15 s. The samples were kept at −80° C. until use. Ten micrometers thick tissue sections were obtained using a cryostat microtome (CM-3050S, Leica, Germany) with a microtome chamber and a specimen holder chilled at −23° C. Tissue sections were thaw mounted onto ITO-coated slides for downstream MALDI imaging and serial sections on SuperFrost slide for histological and immunohistochemistry (IHC) analysis. Biological replicates in duplicate (distant serial sections) were performed for analytical reproducibility. […] All animal experiments were compliant with the 2010/63/UE European Directive on Laboratory Animal Welfare and were approved by an Ethical Committee.
Then, low limit of detection (LOD), low limit of quantitation (LLOQ) and limit of linearity parameters were defined for the calibration curve that has been performed using at least 10 spotted concentrations on 10 μm thickness control tumor tissue sections. […] On the same ITO slide, calibration curve and tissue sections of interest (1 control and 3 treated in duplicates) were deposited and analyzed. Then, a uniform layer of filtrated 1,5-diaminonaphtalene (1,5-DAN) prepared at 10 mg/mL with 50/50 ACN/H2O matrix was deposited onto the tumor tissue sections using an HTX-TM sprayer device (HTX Technologies, LLC, Carrboro, N.C.). MALDI MSI analyses were performed using 7T MALDI-FTICR (SolariX XR, Bruker Daltonics, Bremen, Germany) with a SmartBeam II laser. […] Data acquisition was performed using the Flex software (FtmsControl 2.1.0) from Bruker Daltonics. Then, Multimaging software (ImaBiotech SAS) was used to obtain the calculated equation and to extract the different quantities in pmol/mm^2. A quantity conversion to μg/g of tissue was then obtained in created regions of interest (ROIs).
1.2 software (ImaBiotech SAS). This multimodal imaging platform combines quantitative mass spectrometry imaging (QMSI) and microscopy platform with statistical analysis for the understanding of the Omics information at cellular levels. MSI data were acquired from each tissue section as well as matrix control areas adjacent to the tissue sections to check for analyte dispersion/delocalization during sample preparation. Therefore, the ROIs related to EPA and/or Kyn presence were given by an image segmentation algorithm. […] Then, the algorithm smoothed the two ROIs to transform them into connected spaces. Finally, an exposure score was calculated using the Multimaging software using the formula: […]

Data set [2] in a line: Epacadostat quantification in plasma and blood. The settings on record: BALB/c, mouse, 100 mg/kg oral.
Data set [3] addresses T1, IDO1 (Mus musculus, UniProt P28776).
T1 construct: Colon carcinoma CT26 cell line was subcutaneously grafted into BALB/c mice; from tissue
The data set is described as follows: Regional exposure to response analysis in segmented ROIs of treated CT26 tumor (Kyn, Lactate, IDO1 immunostaining). As for the experimental part:
as §1
As Kyn was not detectable and Trp was slightly seen using classical method in CT26 tumor models, a derivatization strategy was necessary. The derivatization reaction amounts to adding the C11H16N+ (as X) unit to the neutral analyte. The agent was applied using an automatic sprayer (Suncollect, Sunchrom) and left during 30 min for incubation at room temperature. […] MSI data for kynurenine and tryptophan was recorded in positive ion mode (CASI, m/z range 350.0+/−150) at 120 μm of spatial resolution using an online calibration. […]
For MALDI MSI of other metabolites, a uniform layer of filtrated 1,5-diaminonaphtalene (1,5-DAN) prepared at 10 mg/mL with 50/50 ACN/H2O matrix was deposited onto the tumor tissue sections using an HTX-TM sprayer device (HTX Technologies, LLC, Carrboro, N.C.). […] MSI data for metabolites were recorded in full scan negative ion mode (m/z range 100-1000) at 120 μm of spatial resolution using an online calibration. […]
1.2 software (ImaBiotech SAS). This multimodal imaging platform combines quantitative mass spectrometry imaging (QMSI) and microscopy platform with statistical analysis for the understanding of the Omics information at cellular levels. […] Finally, an exposure score was calculated using the Multimaging software using the formula: […]

Data set [4] can be described thus: Epacadostat quantification in CT26 tumor sections by LC-MS/MS. The conditions noted are these: BALB/c, mouse, CT26 tumor tissue sections, 100 mg/kg oral gavage.

T1 sequence (P28776 whole entry): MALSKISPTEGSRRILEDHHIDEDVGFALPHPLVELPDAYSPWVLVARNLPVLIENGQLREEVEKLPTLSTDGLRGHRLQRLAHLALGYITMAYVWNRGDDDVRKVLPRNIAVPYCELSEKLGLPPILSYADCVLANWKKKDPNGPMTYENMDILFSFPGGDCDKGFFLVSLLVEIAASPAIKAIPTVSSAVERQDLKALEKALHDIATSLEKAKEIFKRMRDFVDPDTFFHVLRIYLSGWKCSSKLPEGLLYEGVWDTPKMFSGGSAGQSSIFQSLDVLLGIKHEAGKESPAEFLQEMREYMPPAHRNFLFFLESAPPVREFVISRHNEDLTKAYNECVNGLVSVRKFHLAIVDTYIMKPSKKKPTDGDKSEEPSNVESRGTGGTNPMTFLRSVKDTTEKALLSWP

In turn, `NS(=O)(=O)NCCNc1nonc1C(=NO)Nc1ccc(F)c(Br)c1` [EPA, Epacadostat] had a Kp at 2 h in data set [1] (BALB/c, mouse, CT26 tumor relative to plasma, oral, 100 mg/kg, treated CT26 tumors, LC-MS/MS and QMSI) of 3 to 4. Besides, the concentration at 2 h in data set [1] (BALB/c, mouse, CT26 tumor section, ROI 1 (high EPA region), oral, 100 mg/kg, EPA quantity in ROI 1 (high EPA), QMSI, ROI 1 = 38% of tumor surface) was 68000 ng/g; in data set [1] (BALB/c, mouse, CT26 tumor section, ROI 1, oral, 100 mg/kg, EPA quantity corresponding to the share in ROI 1, 61% of EPA signal) it was 26000 ng/g; in data set [1] (BALB/c, mouse, CT26 tumor section, ROI 2 (low EPA region), oral, 100 mg/kg, EPA quantity in ROI 2 (low EPA), QMSI, ROI 2 = 62% of tumor surface), 25000 ng/g; in data set [1] (BALB/c, mouse, CT26 tumor section, ROI 2, oral, 100 mg/kg, EPA quantity corresponding to the share in ROI 2, 39% of EPA signal), 15000 ng/g; in data set [1] (BALB/c, mouse, CT26 tumor section, ROI 3 (entire section), oral, 100 mg/kg, EPA quantity in ROI 3 (entire treated tumor section), QMSI), 42000 ng/g; in data set [1] (BALB/c, mouse, CT26 tumor tissue sections, po, 100 mg/kg, EPA quantity in treated CT26 tumor sections, three biological triplicates, QMSI, 100 mg/kg oral gavage, sacrificed 2 hours later), 38000 to 53000 ng/g. For the same compound, the concentration at 2 h is 46000 ng/g in data set [1] (BALB/c, mouse, CT26 tumor tissue sections, po, 100 mg/kg, average EPA quantity in CT26 tumor, QMSI, 100 mg/kg oral gavage, 2 hours); 35000 to 48000 ng/g in data set [1] (BALB/c, mouse, CT26 tumor tissue, oral, 100 mg/kg, available on tissue quantity of EPA in treated CT26 tumors, LC-MS/MS and QMSI); 6600 ng/g in data set [2] (plasma); 7300 ng/g in data set [2] (whole blood); 38500 ng/g in data set [4]. Further, in data set [1] (ROI 1 = 38% of entire tissue section), the “share of EPA signal concentrated in ROI 1” value is given as approximately 61%. Moreover, the “share of EPA signal in ROI 2” value in data set [1] (ROI 2 = 62% left tumor region) was 39%. In data set [3] (IDO1 immunostaining on serial section), the “correlation between IDO1 expression level (semi-quantitative histology) and EPA levels” value is reported as “positive correlation”. Moreover, in data set [3] (ROI 1 = 38% of the entire tumor), the “share of Kyn present in ROI 1 (high EPA)” value is listed as 15%. In addition, the “share of Kyn present in ROI 2 (low EPA)” value in data set [3] (ROI 2) was determined as 85%.

For orientation: Kp means tissue or fluid exposure divided by exposure in the circulation.
